Publication PMC6309729 (Biochemistry, 2011)

Experiments:
Format in all cases: biochemical
[1] = molecular target: T1, cpSRP54•cpFtsY complex (Arabidopsis thaliana, UniProt O80842+P37107); test: reciprocally stimulated multiple-turnover GTPase assay; conditions: 25 °C, pH 7.5, 100 μM GTP, 100 nM cpSRP54, varied cpFtsY
T1 sequence (P37107 76-564): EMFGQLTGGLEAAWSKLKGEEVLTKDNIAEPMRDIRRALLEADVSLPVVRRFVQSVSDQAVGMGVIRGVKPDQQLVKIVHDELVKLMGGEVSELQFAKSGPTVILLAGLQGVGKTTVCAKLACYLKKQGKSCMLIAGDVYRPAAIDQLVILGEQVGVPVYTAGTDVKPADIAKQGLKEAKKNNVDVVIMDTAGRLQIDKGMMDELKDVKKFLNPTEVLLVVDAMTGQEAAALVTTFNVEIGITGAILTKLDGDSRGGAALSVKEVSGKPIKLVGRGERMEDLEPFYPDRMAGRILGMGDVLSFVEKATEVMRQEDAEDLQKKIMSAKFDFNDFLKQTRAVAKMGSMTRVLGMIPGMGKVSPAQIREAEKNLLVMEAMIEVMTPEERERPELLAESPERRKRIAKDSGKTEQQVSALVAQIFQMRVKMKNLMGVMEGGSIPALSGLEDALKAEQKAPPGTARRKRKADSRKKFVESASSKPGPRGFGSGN
T1 sequence (O80842 41-366): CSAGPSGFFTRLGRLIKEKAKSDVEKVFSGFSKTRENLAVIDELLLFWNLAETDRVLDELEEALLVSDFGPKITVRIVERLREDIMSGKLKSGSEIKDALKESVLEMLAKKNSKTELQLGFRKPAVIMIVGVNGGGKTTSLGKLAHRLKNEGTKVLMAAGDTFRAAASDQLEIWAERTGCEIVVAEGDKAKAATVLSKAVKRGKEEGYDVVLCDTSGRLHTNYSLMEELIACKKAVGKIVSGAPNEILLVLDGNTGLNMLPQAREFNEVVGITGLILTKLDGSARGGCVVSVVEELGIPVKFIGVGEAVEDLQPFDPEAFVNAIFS

[2] = molecular target: T2, cpSRP54 (Arabidopsis thaliana, UniProt P37107); test: basal GTP binding / GTPase assay; conditions: 25 °C, pH 7.5, Mg(OAc)2; cpSRP54 alone
T2 sequence (P37107 76-564): T1 sequence (P37107 76-564)

[3] = molecular target: T3, cpFtsY (Arabidopsis thaliana, UniProt O80842); test: basal GTP binding / GTPase assay; conditions: 25 °C, pH 7.5, Mg(OAc)2; cpFtsY alone
T3 sequence (O80842 41-366): T1 sequence (O80842 41-366)

Nc1nc2c(ncn2[C@@H]2O[C@H](COP(=O)(O)OP(=O)(O)OP(=O)(O)O)[C@@H](O)[C@H]2O)c(=O)[nH]1 [GTP]
reciprocally stimulated multiple-turnover GTPase assay [1]: reciprocally stimulated GTPase reaction between cpFtsY and cpSRP
basal GTP binding / GTPase assay [2]: basal GTP binding and hydrolysis activity (Tables S3 and S4 of Supporting Information, respectively)
basal GTP binding / GTPase assay [3]: basal GTP binding and hydrolysis activity (Tables S3 and S4 of Supporting Information, respectively)
